Among the data in patent US20120322819A1, “COMPOUND CONTAINING A NOVEL 4-ALKOXYPYRIMIDINE STRUCTURE AND MEDICINE CONTAINING SAME” (KOWA COMPANY, LTD., priority 2010, published 2012) are EC50 values, retold here.

Each structure is given as a SMILES string.

The target of this test is T1, human PPARγ2 (Homo sapiens, UniProt P37231).
T1 construct: the amino acids 182 to 505 of human PPARγ2; expressed in transfected cells; host or cells: COST cells (so in the source)
T1 sequence (P37231 182-505): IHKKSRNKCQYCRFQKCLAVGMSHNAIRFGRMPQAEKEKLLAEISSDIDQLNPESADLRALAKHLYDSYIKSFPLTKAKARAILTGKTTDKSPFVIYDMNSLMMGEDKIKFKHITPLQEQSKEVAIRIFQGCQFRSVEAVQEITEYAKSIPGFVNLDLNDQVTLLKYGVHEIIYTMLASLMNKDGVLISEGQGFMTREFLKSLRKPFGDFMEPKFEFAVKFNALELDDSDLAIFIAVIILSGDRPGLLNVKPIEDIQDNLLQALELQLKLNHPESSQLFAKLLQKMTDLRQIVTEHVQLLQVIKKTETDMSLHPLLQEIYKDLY
Kind of test: PPARγ activation activity, Gal4-PPARγ2 LBD chimera luciferase transfection assay in COST cells. The format is cell-based. Particulars: Gal4 (aa 1-147)/human PPARγ2 LBD (aa 182-505) chimera, luciferase reporter, 16 hours, rosiglitazone (3 to 10 μmol/L) = 100%, read-out: EC50 (50% effective concentration, PPARγ activation). The procedure:
PPARγ Activation Activity
The agonistic activity of the compounds of the invention on PPARγ was measured based on the transfection assay using COST cells (DS Pharma Biomedical Co., Ltd., Osaka, Japan), which are the cell line derived from the kidney of the African green monkey. COST cells were cultured under 5% CO2 concentration, and DMEM medium containing 10% fetal bovine serum, glutamic acid, and antibiotics was used as a medium.
As an expression vector, a chimera in which DNA binding domain of Ga14, which is a yeast transcription factor, and ligand binding domain of human PPARγ2 are fused, i.e., a fused product between the amino acids 1 to 147 of Gal4 transcription factor and the amino acids 182 to 505 of human PPARγ2, was used. Furthermore, as a reporter vector, a firefly luciferase containing five copies of Gal4 recognition sequence in the promoter region was used. Plasmid transfection to the cells was performed according to a method which uses jetPEI (trade name, manufactured by Funakoshi Co., Ltd., Tokyo, Japan). Furthermore, β-galactosidase expression vector was employed as an internal standard.
After the transfection of the cells, the medium was replaced with a DMEM medium (containing 1% serum) added with the test compound, and the cells were further cultured for 16 hours. After that, the luciferase activity and β-galactosidase activity in the cell lysis solution were measured.
For the present test, dimethylsulfoxide (DMSO) was used for dissolution and dilution of the test compounds, and during the cell treatment, the DMSO concentration in DMEM medium (containing 1% serum) was adjusted to 0.1%. As a positive compound, rosiglitazone (trade name, manufactured by ALEXIS Corporation, Switzerland) was used. The percentage (%) of the luciferase activity of the each test compound (1 to 30 μmol/L) was calculated when the luciferase activity of rosiglitazone (3 to 10 μmol/L) is 100% and the luciferase activity in the absence of the test compound is 0%. The 50% effective concentration of the test compound (EC50, 50% effect concentration) was calculated by using SAS Preclinical Package Ver 5.0 (trade name, manufactured by SAS institute Japan Co., Tokyo, Japan), which is a statistical analysis program.
For the compound `CCCCc1nc(C)nc(OCC(N)=O)c1Cc1ccc(-c2ccccc2-c2noc(=O)[nH]2)cc1` [Example 3, 2-{{6-butyl-2-methyl-5-{[2′-(5-oxo-4,5-dihydro-1,2,4-oxadiazol-3-yl)-[1,1′-biphenyl]-4-yl]methyl}pyrimidin-4-yl}oxy}acetamide], the EC50 came to 2870 nM.
Take `CCCCc1nc(C)nc(OCCCC(=O)NCC)c1Cc1ccc(-c2ccccc2-c2noc(=O)[nH]2)cc1` [Example 9, 4-{{6-butyl-2-methyl-5-{[2′-(5-oxo-4,5-dihydro-1,2,4-oxadiazol-3-yl)-[1,1′-biphenyl]-4-yl]methyl}pyrimidin-4-yl}oxy}-N-ethylbutanamide]: the EC50 amounted to 2800 nM.
Under `CCCCc1nc(C)nc(OCCCC(=O)N(CC)CC)c1Cc1ccc(-c2ccccc2-c2noc(=O)[nH]2)cc1` [Example 10, 4-{{6-butyl-2-methyl-5-{[2′-(5-oxo-4,5-dihydro-1,2,4-oxadiazol-3-yl)-[1,1′-biphenyl]-4-yl]methyl}pyrimidin-4-yl}oxy}-N,N-diethylbutanamide] stands 1790 nM; under `CCCCc1nc(C)nc(OCCOCC)c1Cc1ccc(-c2ccccc2-c2noc(=O)[nH]2)cc1` [Example 11, 3-{4′-{[4-butyl-6-(2-ethoxyethoxy)-2-methylpyrimidin-5-yl]methyl}-[1,1′-biphenyl]-2-yl}-1,2,4-oxadiazol-5(4H)-one], 870 nM.
Regarding `CCCCc1nc(C)nc(OCCOCCC)c1Cc1ccc(-c2ccccc2-c2noc(=O)[nH]2)cc1` [Example 12, 3-{4′-{[4-butyl-2-methyl-6-(2-propoxyethoxy)pyrimidin-5-yl]methyl}-[1,1′-biphenyl]-2-yl}-1,2,4-oxadiazol-5(4H)-one], the EC50 turned out to be 570 nM.
Under `CCCCc1nc(C)nc(OCCOCCOC)c1Cc1ccc(-c2ccccc2-c2noc(=O)[nH]2)cc1` [Example 13, 3-{4′-{{4-butyl-6-[2-(2-methoxyethoxy)ethoxy]-2-methylpyrimidin-5-yl}methyl}-[1,1′-biphenyl]-2-yl}-1,2,4-oxadiazol-5(4H)-one] stands 1600 nM; under `CCCCc1nc(C)nc(OCCOCc2ccccc2)c1Cc1ccc(-c2ccccc2-c2noc(=O)[nH]2)cc1` [Example 14, 3-{4′-{{4-[2-(benzyloxy)ethoxy]-6-butyl-2-methylpyrimidin-5-yl}methyl}-[1,1′-biphenyl]-2-yl}-1,2,4-oxadiazol-5(4H)-one], 290 nM.
Under `CCCCc1nc(C)nc(OCCOC(C)C)c1Cc1ccc(-c2ccccc2-c2noc(=O)[nH]2)cc1` [Example 16, 3-{4′-{[4-butyl-6-(2-isopropoxyethoxy)-2-methylpyrimidin-5-yl]methyl}-[1,1′-biphenyl]-2-yl}-1,2,4-oxadiazol-5(4H)-one] stands 640 nM; under `CCCCc1nc(C)nc(OCCSC)c1Cc1ccc(-c2ccccc2-c2noc(=O)[nH]2)cc1` [Example 17, 3-{4′-{{4-butyl-2-methyl-6-[2-(methylthio)ethoxy]pyrimidin-5-yl}methyl}-[1,1′-biphenyl]-2-yl}-1,2,4-oxadiazol-5(4H)-one], 410 nM; under `CCCCc1nc(C)nc(OCC(OC)OC)c1Cc1ccc(-c2ccccc2-c2noc(=O)[nH]2)cc1` [Example 19, 3-{4′-{[4-butyl-6-(2,2-dimethoxyethoxy)-2-methylpyrimidin-5-yl]methyl}-[1,1′-biphenyl]-2-yl}-1,2,4-oxadiazol-5(4H)-one], 880 nM.
Under `CCCCc1nc(C)nc(OCC(OCC)OCC)c1Cc1ccc(-c2ccccc2-c2noc(=O)[nH]2)cc1` [Example 20, 3-{4′-{[4-butyl-6-(2,2-diethoxyethoxy)-2-methylpyrimidin-5-yl]methyl}-[1,1′-biphenyl]-2-yl}-1,2,4-oxadiazol-5(4H)-one] stands 310 nM; under `CCCCc1nc(C)nc(OCC(C)O)c1Cc1ccc(-c2ccccc2-c2noc(=O)[nH]2)cc1` (stereo not drawn) [Example 21, 3-{4′-{[4-butyl-6-(2-hydroxypropoxy)-2-methylpyrimidin-5-yl]methyl}-[1,1′-biphenyl]-2-yl}-1,2,4-oxadiazol-5(4H)-one], 400 nM.
